Assay results published in the METLIN SMRT retention time set (Domingo-Almenara et al. 2019).

Experiment: gradient 5% acetonitrile 3 min, to 50% in 2 min, to 85% in 15 min, held 3 min, 100 µL/min
Settings: column: Zorbax Extend-C18 2.1 x 50 mm; eluents: water / acetonitrile, 0.1% formic acid
Procedure, shortened: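 Each retention time is based on an adduct peak selected computationally and verified by manual inspection. Measurements used HPLC–quadrupole time-of-flight mass spectrometry in positive and negative ionization mode on mixtures of ~100 pure standards. Chromatography ran on a Zorbax Extend-C18 column (2.1 × 50 mm, 1.8 μm) at 100 μL/min with water and acetonitrile, each containing 0.1% formic acid, and dead and dwell volumes of 40 μL and 900 μL.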

RP-LC retention time [s]	SMILES
884	O=C(c1ccc(OC(F)(F)F)cc1)N1C[C@@H]2C[C@H]1C[C@@H]2NS(=O)(=O)c1ccccc1
662	COc1cccc(NC(=O)NCC(c2cccnc2)c2c[nH]c3ccccc23)c1 (stereo unspecified)
817	Cn1c(=O)sc2cc(S(=O)(=O)N3CCC(C(=O)Nc4ccc5c(c4)OCO5)CC3)ccc21
577	CC(C)NC(=O)c1ccc2c(c1)nc(CN1CCN(C(=O)NC3CCCCC3)CC1)n2C
664	CC(=O)N1CCC(C2CCN(C(=O)C3CC=CC3)C2)CC1 (stereo unspecified)
1050	CC1(C)CC(=O)c2c(O)cc(OCC(=O)N3CCN(c4ccc(Cl)cc4)CC3)cc2O1
1090	CCCCN1C(=O)C(C)(C(=O)Nc2ccc(C)cc2C)Oc2cccnc21 (stereo unspecified)
900	CC(C)Oc1ccc(CNC(=O)C2CCCN(c3ccc(=O)n(-c4ccc(F)cc4)n3)C2)cc1 (stereo unspecified)
792	CN(C)CCCN1c2ccc3ccccc3c2Sc2cccc(Cl)c21
727	COC(=O)c1c(N)n(C(C)c2ccccc2)c2nc3ccccc3nc12 (stereo unspecified)
756	Cc1ccc2c(Nc3ccc(F)cc3C)c(-c3nc(C)no3)cnc2n1
590	COc1ccc(C(=O)N2CCC[C@H]2c2nc(C(C)C)n[nH]2)c(OC)n1
1150	CS(=O)(=O)N1CCC2(CC1)CN(c1cccc(F)c1)C2c1ccccc1 (stereo unspecified)
625	Cc1cccc2nnc(N3CCCC(C(=O)Nc4ccc(N5CCOCC5)cc4)C3)n12 (stereo unspecified)
878	O=S(=O)(Nc1cc(F)cc(F)c1)c1ccc(-c2nnc(C3CC3)o2)o1
872	Cc1ccccc1C(=O)Nc1ccc2c(c1)Sc1ncccc1C(=O)N2C(C)C
949	COC(=O)c1cccc(Nc2c(-c3ccccc3)nc3cnc(Br)cn23)c1
641	N#Cc1ccc(C(=O)N2CCC(c3cc(N)on3)CC2)cc1
688	CC(C)NC(=O)c1ccc(OCC2CCCN(C(=O)C3CCCO3)C2)cc1 (stereo unspecified)
941	CCn1c(=O)sc2cc(S(=O)(=O)N3CCC(C(=O)Nc4cccc(F)c4)CC3)ccc21
780	Cc1nc2c(ccc3nc(NC(=O)CN4C(=O)c5ccccc5C4=O)sc32)s1
761	CC(C)N1CCn2c(nc3cc(C(=O)NCc4ccc(Br)cc4)ccc32)C1=O
740	CCCc1noc(-c2cccnc2N2CCCN(Cc3ccccc3C)CC2)n1

RP-LC retention time [s]	SMILES
1030	Cn1c(=O)oc2cc(-c3noc(CCc4ccccc4)n3)ccc21
803	COc1ccc(Cl)cc1NS(=O)(=O)c1cc2n(c1)CCN(C(C)C)C2=O
715	Cc1ccn2cc(C(=O)N3CCN(c4ccc(Cl)cc4)CC3)nc2c1
983	CC1CCc2nn(CC(=O)Nc3cc(F)ccc3F)cc2C1 (stereo unspecified)
825	CC1(C)CS(=O)(=O)N(c2cccc(C(=O)NCCc3c[nH]c4ccccc34)c2)C1=O
845	O=c1ccn(-c2ccc(Cl)cc2)nc1-c1nc(-c2ccccc2OCc2ccccc2)no1
719	CCC(=O)Nc1nc(-c2ccc3c(c2)NC(=O)CO3)c(C)s1
940	Cc1cc(-c2nnc(-c3ccc(F)cc3)o2)c(C)n1CC(=O)NCc1cccc(F)c1
967	O=C(Nc1ccc(Br)cc1F)C1CCCN(c2cc(-n3cccn3)ncn2)C1 (stereo unspecified)
1170	O=C(NCCC1CCN(C(=O)Nc2ccccc2F)CC1)c1ccco1
1220	CC1(C)CCC[C@]2(C)[C@H]3CC(=O)O[C@]3(C)CC[C@@H]12
801	COc1ccc(OC)c(CNC(=O)c2cccc3c2SCCC3=O)c1
838	CCN1C(=O)COc2ccc(-c3csc(NC(=O)C4CCCO4)n3)cc21 (stereo unspecified)
958	CCN1C=C(C(=O)OCc2ccccc2)C(C)=NS1(=O)=O
590	CC(C)n1cnc2cc(CNC(=O)c3ccccn3)ccc21
698	CN1C(=O)c2cc(C(=O)NCc3ccccc3F)nn2CC1(C)C(=O)NC1CCCC1 (stereo unspecified)
995	c1ccc(-c2nc3ccccc3nc2N2CCOCC2)cc1
622	COc1ccccc1-c1c(C)nn2c(SCC(=O)NCCN(C)C)cc(C)nc12
724	CCNC(=O)N1CCC(c2noc(-c3ccccc3)n2)C1 (stereo unspecified)
726	O=C(Nc1ccc2nc3n(c(=O)c2c1)CCC3)Nc1ccccc1Br
707	Cc1ccccc1OCc1ccc(-c2nc(C#N)c(NCCN(C)C)o2)o1
738	Cc1nnc2c(=O)n(CC(=O)NCc3cccc(C(F)(F)F)c3)c3cccnc3n12
890	CC12CCC(C(=O)Nc3ccc(Cl)cn3)(OC1=O)C2(C)C (stereo unspecified)

RP-LC retention time [s]	SMILES
645	Cc1nc(N2CCCC2)cc(N2CCN(C(=O)c3ccc(Br)o3)CC2)n1
783	CCCCNc1c(C(=O)OC)c(=O)[nH]c2c(Cl)cccc12
957	CC1=C(C(=O)Nc2ccc(C(=O)N3CCN(c4ccc(Cl)cc4)CC3)cc2)SCCO1
615	Cn1c(C2CCN(C(=O)Nc3ccc(F)cc3)CC2)cc(=O)n2nccc12
1240	CCOC(=O)c1ccccc1NC(=O)c1nc(SC)ncc1Cl
599	CN1CCN(CCNC(=O)c2cnn3c4c(cnc23)CCCCCC4)CC1
1190	O=C(Cc1ccc(Cl)cc1)Nc1ccsc1-c1nnc(C2CC2)o1
736	CCC(=O)NCCc1csc(C2CCCN(C(=O)C3(c4ccccc4)CC3)C2)n1 (stereo unspecified)
704	CS(=O)(=O)N1CCC(C(=O)NC2CCCC(OC(=O)Nc3ccc(F)cc3)C2)CC1 (stereo unspecified)
677	CC(=O)c1ccc(S(=O)(=O)N2CCC[C@@H]2C(=O)NCc2csc(C)n2)cc1
915	CC(C)NC(=O)c1ccc(OCC2CCCN(C(=O)c3ccc(F)c(Cl)c3)C2)cc1 (stereo unspecified)
1210	CCCOc1nc2ccccc2nc1N1CCCC(C(=O)Nc2ccc(Cl)cc2)C1 (stereo unspecified)
724	CCOc1ccccc1NC(=O)Cn1nc2c3sc(N(C)C)nc3ncn2c1=O
1100	CCOc1ccc(OCC)c(NC(=O)c2cn3c4c(ccc(Cl)c4c2=O)OCC3)c1
588	CCN1CCC(Nc2ccnc3cc(Cl)ccc23)CC1
810	CCOC(=O)N1CCN(C(=O)CSc2nccc3c(OC)cccc23)CC1
580	CCCNC(=O)N1CCCCCC1CN1CCCC1 (stereo unspecified)
773	CC(C)C(=O)Nc1nnc(SCc2nnc(-c3ccc4c(c3)OCO4)o2)s1
908	COc1ccccc1-c1noc(C2CCCN2C(=O)Nc2cccc(SC)c2)n1 (stereo unspecified)
854	CC(NC(=O)C1CCN(C(=O)c2ncn3c2COC(c2ccc(Cl)cc2)C3)CC1)c1ccccc1 (stereo unspecified)
590	Cc1nc(Nc2ccc(F)cn2)sc1C(=O)N1CCC(C(N)=O)(N2CCCCC2)CC1
959	COc1ccc(NC(=O)N(C)CCc2noc(-c3ccc(Cl)cc3)n2)c(OC)c1
1120	O=C(NC1CCCCCC1)c1nnn(Cc2ccccc2)c1-n1cccc1

RP-LC retention time [s]	SMILES
979	Cn1cc(-c2ccccc2)cc1C(=O)NCc1cccs1
697	Cc1[nH]nc(-c2ccc(S(=O)(=O)NCCc3ccc(S(N)(=O)=O)cc3)o2)c1C
596	Cn1nnnc1SCCNCc1ccc(Cl)cc1Cl
596	Cc1nc2n(c(=O)c1C)CCN2CC(=O)NCc1ccco1
697	CCCN1C(=O)C(CC(=O)NCC2CC2)Sc2ncccc21 (stereo unspecified)
1130	CCc1nc2cc(-c3noc(CCc4ccc(OC)cc4)n3)ccc2o1
788	CN1C(=O)C(C)(C(=O)Nc2ccccc2)Oc2cccnc21 (stereo unspecified)
944	CCN1C(=O)c2ccccc2Oc2ccc(C(=O)NCCc3cccs3)cc21
859	O=c1n(CCOc2ccc(F)cc2)nc2ccc(S(=O)(=O)N3CCCC3)cn12
770	CCC(C)NC(=O)c1cc(C)nc2ccc(Cl)cc12 (stereo unspecified)
1230	CC(C)CCNc1ccc(-c2nc(-c3ccc(F)cc3)no2)cn1
673	O=C(c1noc2c1CCc1sccc1-2)N1CCN(c2ccccn2)CC1
644	COC(=O)C1CCN(C(=O)c2csc(Nc3ncccn3)n2)CC1
637	O=C(c1cn2ccnc(-c3ccccc3)c2n1)N1CCN(C2CCCCC2)CC1
852	COc1ccc(NS(=O)(=O)c2ccc3c(c2)-c2oncc2CO3)c(OC)c1
614	O=C(N[C@@H]1CN(Cc2ccc(C(F)(F)F)cc2)CC[C@@H]1CO)C1CC1
675	Cc1cccc(CNC(=O)c2cn3ccc(C)cc3n2)c1
875	Cc1cc2c(c(=O)n(-c3ccc(F)cc3)c(=O)n2CC(=O)Nc2cc(F)ccc2F)n1C
635	CCCNC(=O)c1ccc2c(c1)CCN2C(C)=O
995	CCCc1noc(-c2cccnc2N2CCCN(C(=O)Nc3cc(C)ccc3C)CC2)n1
719	CCc1nnc2ccc(NC(=O)Nc3cccc(C)c3)cn12

SMILES	RP-LC retention time [s]
C=CCN1C[C@H](C)N([C@H](c2ccccc2)c2ccc(C(=O)N(CC)CC)cc2)C[C@H]1C	702
